“Also recorded” adds a separate entry of the source.

In the first experiment the test system is heat induced HSP70 expression in Jurkat cells. The experiment can be described thus: Inhibition of heat-induced HSP70 expression, Western blot. Format: cell-based, human. The note with it: pre-heat treatment 50 μg/ml.
`O=C(O)COc1cc(O)c2c(=O)c(O)c(-c3ccc(O)c(O)c3)oc2c1` [Compound D9]: the “Inhibition of HSP70 induction (in words)” value was “does not inhibit HSP70; also recorded: showed no ability to inhibit HSP70 induction”.

A further experiment relates to HSP27 phosphorylation at Ser78 in HeLa cells. The experiment can be described thus: Drug-induced HSP27 Ser78 phosphorylation, Western blot. Format: cell-based, human. To be noted: absence of heat shock, 50 μg/ml 1 h. (A western blot detects proteins with antibodies after separation by electrophoresis.)
Turning to `O=c1c(O)c(-c2ccc(O)c(O)c2)oc2cc(O)cc(O)c12` [Quercetin, reference compound], the “Enhancement of HSP27 phosphorylation (in words)” value (from here on “Enhancement”) is on record as “enhances HSP27 phosphorylation at Ser78”.

For `COc1cc(O)c2c(=O)c(O)c(-c3ccc(O)c(O)c3)oc2c1` [Compound D7], the “Enhancement” value is “showed enhancement of HSP27 phosphorylation”.

Regarding `COC(=O)COc1cc(O)c2c(=O)c(O)c(-c3ccc(O)c(O)c3)oc2c1` [Compound D10], the “Enhancement” value is recorded as “showed enhancement of HSP27 phosphorylation”.

For `COC(=O)COc1cc(-c2oc3cc(O)cc(O)c3c(=O)c2O)ccc1O` [Compound D1], the “Enhancement” value is reported as “did not activate HSP27 phosphorylation”.

As to `COc1cc(-c2oc3cc(O)cc(O)c3c(=O)c2O)ccc1O` [Compound D2], the “Enhancement” value is given as “did not activate HSP27 phosphorylation”.

The values above are taken from PMC2763579 (Journal of medicinal chemistry, 2009).
